# Source: article PMC7445162, “De novo design of an intercellular signaling toolbox for multi-channel cell–cell communication and biological computation” (Nature Communications, 2020)
# Where two headings read alike, the source gives them in different places.
# Legend:
# PhlF = molecular target: T1, PhlF (Pseudomonas protegens, UniProt Q4K422); assay: cell-based; design: species or system Escherichia coli DH5alpha; E. coli receiver cells, GFP reporter under aTF-responsive promoter, flow cytometry, dose-response with pure synthetic signal molecules; settings: synthetic pure signal, replicate
# T1 construct: expressed in E. coli DH5alpha receiver cells; PphlF-sfGFP reporter
# T1 sequence (Q4K422 1-200): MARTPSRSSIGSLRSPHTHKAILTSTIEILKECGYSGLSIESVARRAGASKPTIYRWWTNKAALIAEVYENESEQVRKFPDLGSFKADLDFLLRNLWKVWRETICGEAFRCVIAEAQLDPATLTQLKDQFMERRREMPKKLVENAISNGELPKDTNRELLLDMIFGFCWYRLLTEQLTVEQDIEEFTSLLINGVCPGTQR
# Excerpt: (§1) IV-HSL was chemically synthesized (Supplementary Fig. 21).
# LuxR [1] = molecular target: T2, LuxR (Aliivibrio fischeri, UniProt P12746); assay: GFP reporter dose-response in E. coli, flow cytometry; type: cell-based, Escherichia coli; settings: chemically pure signal molecule; M9 medium, 37 °C, 12 h; transcriptional reporter
# T2 construct: expressed in E. coli DH5alpha receiver cells; GFP reporter under the Plux* promoter
# T2 sequence (P12746 1-250): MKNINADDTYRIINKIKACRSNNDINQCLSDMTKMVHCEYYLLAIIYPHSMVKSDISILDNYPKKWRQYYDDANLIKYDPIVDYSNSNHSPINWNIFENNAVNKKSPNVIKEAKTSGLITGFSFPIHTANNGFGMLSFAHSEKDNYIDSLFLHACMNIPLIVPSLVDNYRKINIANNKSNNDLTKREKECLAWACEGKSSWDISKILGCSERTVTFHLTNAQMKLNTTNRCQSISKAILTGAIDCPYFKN
# LuxR [2] = molecular target: T2, LuxR; assay: cell-based; design: species or system Escherichia coli DH5alpha; E. coli receiver cells, GFP reporter under aTF-responsive promoter, flow cytometry, dose-response with pure synthetic signal molecules; settings: synthetic pure signal, replicate
# Excerpt: as §1
# FdeR [3] = molecular target: T3, FdeR (Herbaspirillum seropedicae, UniProt D8J0W4); assay: GFP reporter dose-response in E. coli, flow cytometry; type: cell-based, Escherichia coli
# T3 construct: gene nodD; expressed in E. coli DH5alpha receiver cells; GFP reporter under the cognate promoter
# FdeR [4] = molecular target: T3, FdeR; assay: cell-based; design: species or system Escherichia coli DH5alpha; E. coli receiver cells, GFP reporter under aTF-responsive promoter, flow cytometry, dose-response with pure synthetic signal molecules; settings: synthetic pure signal, replicate
# Excerpt: as §1
# T3 sequence (D8J0W4 1-309): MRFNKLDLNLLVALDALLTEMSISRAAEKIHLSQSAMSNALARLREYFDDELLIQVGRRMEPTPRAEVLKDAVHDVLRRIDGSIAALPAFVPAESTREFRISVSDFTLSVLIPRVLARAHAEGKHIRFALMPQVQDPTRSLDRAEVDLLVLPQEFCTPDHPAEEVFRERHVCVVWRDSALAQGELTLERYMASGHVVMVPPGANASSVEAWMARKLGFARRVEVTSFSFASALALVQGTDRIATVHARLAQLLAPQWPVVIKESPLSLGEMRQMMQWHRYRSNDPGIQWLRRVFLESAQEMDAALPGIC
structure (smiles),measurement,setting,value
"CC(=O)c1c(O)cc(O)c(C(C)=O)c1O [DAPG, 2,4-diacetylphloroglucinol]",EC50,PhlF; Synthetic [column B],18.2 µM
same,EC50,PhlF; Synthetic [column C],17.7 µM
same,EC50,PhlF; Synthetic [column D],16.3 µM
"CCCC(=O)CC(=O)N[C@H]1CCOC1=O [3OC6, 3-oxo-C6-HSL]",EC50,LuxR [1],0.02 µM
same,EC50,LuxR [2]; Synthetic [column B],0.0108 µM
same,EC50,LuxR [2]; Synthetic [column C],0.0329 µM
same,EC50,LuxR [2]; Synthetic [column D],0.0148 µM
"O=C1C[C@@H](c2ccc(O)cc2)Oc2cc(O)cc(O)c21 [NG, naringenin]",EC50,FdeR [3],51 µM
same,EC50,FdeR [4]; Synthetic [column B],12.1 µM
same,EC50,FdeR [4]; Synthetic [column C],93.8 µM
same,EC50,FdeR [4]; Synthetic [column D],47.3 µM
